In patent publication US20240140953A1, “INHIBITORS OF MENIN-MLL INTERACTION” (BIOMEA FUSION, INC., priority 2018, published 2024):
Like-named read-outs stand apart in the source and are kept apart here.

Legend:
MOLM-13 = test: Long term proliferation assay (Table 3A), MOLM-13; format: cell-based; details: Homo sapiens
Experimental: Example 5b: IC50 determination of compounds of invention in various cell lines (Long Term Proliferation Assay)
The following 5 cell lines are used or can be used for the long term proliferation assay.
(§1) Compounds of invention are tested in the 5 suspension lines by 14-day long-term proliferation assay.
(§2) The compound is tested in 10-pt dose titration (client will determine the starting concentration and the dilution scheme) and the final DMSO concentration is kept at 0.2%.
(§3) Vehicle and media control are also included. All treatments are done in triplicate.
3 plates are used for each cell line and 15 plates are used for the 5 cell lines.
(§4) • 1) On Day 0, in a flat bottom 96-well plate, add 100 μL of cells per well at the densities optimized. • 2) Prepare compounds in DMSO at 500× final concentration. Dilute the compounds with DMSO at the dilution. • 3) Dilute the compounds in media at 3×final concentration. Add 50 μL of compound or DMSO at 3× final concentration to each well. Final volume in each well is 150 μL, and final concentration of DMSO is 0.2%. Also include 3 untreated control wells, by adding 50 μL of media alone. 4) Incubate plates for 96 hours. • 5) Count the cells using the Acumen, with capabilities for 96-well plates. Pipette cells up and down to mix in each well, and add desired volume of cells to a new flat bottom poly-D-lysine 96-well plate. Add Calcein AM at 1 μM final concentration. Let cells sit at RT for 10 mins followed by a quick spin to get cells settled on the bottom of the wells. Incubate the plate for additional 40 mins in the incubator. Take out the plate and read by Acumen. Calculate the cell numbers taken into account the dilution factors. • 6) Split the master plate. To do this take the total viable cell count calculated using step 5). Take the average of the replicates for each dose in order to be used in splitting the cells. • 7) Use a 96 well V-bottom plate to spin down the cells to remove old media and compound to split the cells. Based on the split ratio place the proper amount of media and cells into the V-bottom plate, and spin the plate at 1100 rpm for 5 minutes. • 8) Following the spin remove the media, careful not to disturb the cellpellet. • 9) Re-suspend pellet in 100 μL fresh media, and add to a new 96-well flat bottom plate. • 10) Add fresh compound, in the same manner as Step 3). • 11) Incubate plates for 72 hours. Repeat steps 5)-10) on Day 7. • 12) Incubate plates for 96 hours. Repeat Step 5)-10) on Day 11. • 13) Incubate 72 hours and repeat step 5) to take a final count. • 14) Data Analysis
(§5) To calculate growth for days 4, 7, 11, and 14: • Calculate the split factor for day 4 to 7, day 7 to 11, and day 11-14.

OCI-AML-3 = test: Long term proliferation, Cell Titer-Glo (Table 3B), OCI-AML-3; format: cell-based; details: Homo sapiens, OCI-AML-3, Cell Titer-Glo
KG-1 = test: Long term proliferation, InCell (Table 3C), KG-1; format: cell-based; details: Homo sapiens, KG-1, InCell
Experimental: as §1, §2, §3, §4, §5

HL-60 = test: LTP assay, CellTiterGlo, T4-T14 (Example 103), HL-60; format: cell-based; details: for inhibition of cell viability (in words): HL-60, LTP assay
Experimental: (§6) The day of the experiment (T0) all the cell line suspensions were counted by Cell Viability Analyser, Vi-CELL and properly diluted with fresh medium to obtain the cell density reported in the Test System paragraph.
(§7) Cells were tested after 4 passages after thawing.
(§8) 200 μL/well and 150 μL/well of cell suspension were added into the 0.4 μL/well and 0.3 μL/well compound plates, respectively. • Cell plate containing 200 μL/well suspension was incubated at 37° C. in a humidified incubator with 5% CO2. • From each well of the 150 μL/well cell assay plate, 100 μL were harvested and transferred into a 96-well Optiplate (Perkin Elmer, Cat. n. 6005290) and cell viability was measured as described in 4.3 paragraphs (T0).
(§9) After four days in culture (T4) 150 μL/well of fresh medium were added into a new 0.3 μL/well copy compound plate. • From each well of the 200 μL/well cell assay plate: • 100 μL were sampled for the cell viability measurement as described in 4.3 paragraphs (T4). • 50 μL were harvested and added to the 150 μL/well compound plate prepared as described in the first point to dilute 1:4 the cell suspension. • The cell assay plate diluted and containing 200 μL/well suspension were incubated at 37° C. in a humidified incubator with 5% Co2.
(§10) At T7-T11-T14 it was proceeded as described in T4, with the exception that no further cell dilution was carried out at T14.
(§11) Plates containing the samples to be tested were equilibrated at room temperature for approximately 30 min and then 30 μL/well of the Promega CellTiterGlo® reagent were added.
(§12) Contents will be mixed for 5 min on an orbital shaker to induce cell lysis and then incubated at room temperature for an additional 10 min to stabilize the luminescent signal.
(§13) Luminescence was read by using VictorV (Perkin Elmer) multilabel plate reader using the standard protocol for luminescence in 96 well plate.
(§14) Data were expressed as % of inhibition compared to the 0.2% DMSO negative control, and was calculated as follows: […]
(§15) CRCs were analysed by GraphPad and IC50 values were calculated by non-linear regression using 4 parameter-logistic equation. IC50 (μM) values were reported in the final data table.
(§16) The curve fittings were performed leaving free all the parameters. Any constrain were reported in the results table.

MOLM-13 (MLL-AF9) = test: LTP assay, CellTiterGlo, T4-T14 (Example 103), MOLM-13; format: cell-based, human; details: for inhibition of cell viability (in words): MOLM-13, LTP assay
Experimental: as §6, §7, §8, §9, §10, §11, §12, §13, §14, §15, §16

MV4-11 (MLL-AF4) = test: LTP assay, CellTiterGlo, T4-T14 (Example 103), MV4-11; format: cell-based, human; details: for inhibition of cell viability (in words): MV4-11, LTP assay
Experimental: as §6, §7, §8, §9, §10, §11, §12, §13, §14, §15, §16

RS4-11 (MLL-AF4) = test: LTP assay, CellTiterGlo, T4-T14 (Example 103), RS4-11; format: cell-based; details: for inhibition of cell viability (in words): RS4;11, LTP assay
Experimental: as §6, §7, §8, §9, §10, §11, §12, §13, §14, §15, §16

[1] = 96 h, MOLM-13, Day 4, read-out: MOLM-13 Day 4 IC50
[2] = 96 h, Day 4, read-out: Day 4 IC50
[3] = 264 h, Day 11, read-out: Day 11 IC50
[4] = HL-60, T4 (Day 4), read-out: IC50 T4 (Day 4)
[5] = Homo sapiens, HL-60, 96 h, HL-60, T4 (Day 4), read-out: IC50 T4 (Day 4)
[6] = Homo sapiens, HL-60, HL-60, T7, read-out: IC50 T7
[7] = Homo sapiens, HL-60, HL-60, T11, read-out: IC50 T11
[8] = Homo sapiens, HL-60, HL-60, T14, read-out: IC50 T14
[9] = Homo sapiens, MOLM-13, 96 h, MOLM-13 (MLL-AF9), T4 (Day 4), read-out: IC50 T4 (Day 4)
[10] = Homo sapiens, MOLM-13, MOLM-13 (MLL-AF9), T7, read-out: IC50 T7
[11] = Homo sapiens, MOLM-13, MOLM-13 (MLL-AF9), T11, read-out: IC50 T11
[12] = Homo sapiens, MOLM-13, MOLM-13 (MLL-AF9), T14, read-out: IC50 T14
[13] = MOLM-13 (MLL-AF9), T4 (Day 4), read-out: IC50 T4 (Day 4)
[14] = Homo sapiens, MV4-11, 96 h, MV4-11 (MLL-AF4), T4 (Day 4), read-out: IC50 T4 (Day 4)
[15] = Homo sapiens, MV4-11, MV4-11 (MLL-AF4), T7, read-out: IC50 T7
[16] = Homo sapiens, MV4-11, MV4-11 (MLL-AF4), T11, read-out: IC50 T11
[17] = Homo sapiens, MV4-11, MV4-11 (MLL-AF4), T14, read-out: IC50 T14
[18] = Homo sapiens, RS4-11, 96 h, RS4-11 (MLL-AF4), T4 (Day 4), read-out: IC50 T4 (Day 4)
[19] = Homo sapiens, RS4-11, RS4-11 (MLL-AF4), T7, read-out: IC50 T7
[20] = Homo sapiens, RS4-11, RS4-11 (MLL-AF4), T11, read-out: IC50 T11

O=C(Nc1ccc(-c2cc3c(N4CCOCC4)ncnc3[nH]2)cc1)Nc1cc(-c2cccnc2)n[nH]1 [Compound 9, 1-{4-[4-(morpholin-4-yl)-7H-pyrrolo[2,3-d]pyrimidin-6-yl]phenyl}-3-[3-(pyridin-3-yl)-1H-pyrazol-5-yl]urea]
IC50 (MOLM-13; [1]): 324 nM
IC50 (MOLM-13; 264 h, MOLM-13, Day 11, read-out: MOLM-13 Day 11 IC50): 155 nM
IC50 (OCI-AML-3; [2]): 870 nM
IC50 (OCI-AML-3; 168 h, Day 7, read-out: Day 7 IC50): 710 nM
IC50 (OCI-AML-3; [3]): 650 nM
IC50 (OCI-AML-3; 336 h, Day 14, read-out: Day 14 IC50): 720 nM
IC50 (KG-1; [2]): 3310 nM
IC50 (KG-1; [3]): 2290 nM

Cn1nc(-c2cccnc2)cc1CC(=O)Nc1ccc(-c2cc3c(N4CCOCC4)ncnc3[nH]2)cc1 [Compound 11, 2-[1-methyl-3-(pyridin-3-yl)-1H-pyrazol-5-yl]-N-{4-[4-(morpholin-4-yl)-7H-pyrrolo[2,3-d]pyrimidin-6-yl]phenyl}acetamide]
IC50 (MOLM-13; [1]): 260 nM
inhibition of cell viability (in words) (HL-60): fully inhibited cell viability
IC50 (HL-60; [4]): 692 nM
IC50 (HL-60; HL-60, T7, read-out: IC50 T7): 389 nM
IC50 (HL-60; [5]): 690 nM
IC50 (HL-60; [6]): 390 nM
IC50 (HL-60; [7]): 480 nM
IC50 (HL-60; [8]): 470 nM
IC50 (MOLM-13 (MLL-AF9); [9]): 660 nM
IC50 (MOLM-13 (MLL-AF9); [10]): 513 nM
IC50 (MOLM-13 (MLL-AF9); [11]): 320 nM
IC50 (MOLM-13 (MLL-AF9); [12]): 420 nM
IC50 (MOLM-13 (MLL-AF9); [13]): 661 nM
inhibition of cell viability (in words) (MOLM-13 (MLL-AF9)): fully inhibited cell viability
IC50 (MV4-11 (MLL-AF4); [14]): 650 nM
IC50 (MV4-11 (MLL-AF4); [15]): 500 nM
IC50 (MV4-11 (MLL-AF4); [16]): 420 nM
IC50 (MV4-11 (MLL-AF4); [17]): 310 nM
IC50 (MV4-11 (MLL-AF4); MV4-11 (MLL-AF4), T4 (Day 4), read-out: IC50 T4 (Day 4)): 646 nM
IC50 (MV4-11 (MLL-AF4); MV4-11 (MLL-AF4), T7, read-out: IC50 T7): 501 nM
inhibition of cell viability (in words) (MV4-11 (MLL-AF4)): fully inhibited cell viability
IC50 (RS4-11 (MLL-AF4); [18]): 1230 nM
IC50 (RS4-11 (MLL-AF4); [19]): 850 nM
IC50 (RS4-11 (MLL-AF4); [20]): 110 nM
IC50 (RS4-11 (MLL-AF4); RS4-11 (MLL-AF4), T7, read-out: IC50 T7): 851 nM
inhibition of cell viability (in words) (RS4-11 (MLL-AF4)): fully inhibited cell viability

O=C(Cc1cc(-c2cccnc2)n[nH]1)Nc1ccc(-c2nc3c(N4CCOCC4)ncnc3[nH]2)cc1 [Compound 12, N-{4-[6-(morpholin-4-yl)-9H-purin-8-yl]phenyl}-2-[3-(pyridin-3-yl)-1H-pyrazol-5-yl]acetamide]
IC50 (MOLM-13; [1]): 710 nM
inhibition of cell viability (in words) (HL-60): No activity
IC50 (HL-60; [4]): > 10000 nM
IC50 (HL-60; HL-60, T7, read-out: IC50 T7): > 10000 nM
IC50 (HL-60; [5]): > 5000 nM
IC50 (HL-60; [6]): > 5000 nM
IC50 (HL-60; [7]): > 5000 nM
IC50 (HL-60; [8]): > 5000 nM
IC50 (MOLM-13 (MLL-AF9); [9]): > 5000 nM
IC50 (MOLM-13 (MLL-AF9); [10]): 5750 nM
IC50 (MOLM-13 (MLL-AF9); [11]): 562 nM
IC50 (MOLM-13 (MLL-AF9); [12]): > 5000 nM
IC50 (MOLM-13 (MLL-AF9); [13]): > 10000 nM
inhibition of cell viability (in words) (MOLM-13 (MLL-AF9)): partial effect
IC50 (MV4-11 (MLL-AF4); [14]): 1550 nM
IC50 (MV4-11 (MLL-AF4); [15]): 1260 nM
IC50 (MV4-11 (MLL-AF4); [16]): 850 nM
IC50 (MV4-11 (MLL-AF4); [17]): 870 nM
inhibition of cell viability (in words) (MV4-11 (MLL-AF4)): partial effect
IC50 (RS4-11 (MLL-AF4); [18]): 580 nM
IC50 (RS4-11 (MLL-AF4); [19]): 420 nM
IC50 (RS4-11 (MLL-AF4); [20]): 260 nM
inhibition of cell viability (in words) (RS4-11 (MLL-AF4)): fully inhibited the cell viability
